Usually IC50 stands for the concentration at which inhibition is half-maximal. As a reminder, the AC50 is the concentration at which the activity in the assay is half-maximal. Low values mean greater potency, high ones weaker potency.

Data set [1] concerns MYB mRNA. As to the kind of experiment: Splicing RT-qPCR assay, MYB canonical (CJ) and alternative (AJ) junction mRNA. It is filed as cell-based. As to conditions: Homo sapiens, A673 or K562 cells, 24 hours; for IC50: decrease in canonical junction mRNA; for AC50: increase in alternative junction mRNA. Put shortly:
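A673 or K562 cells were treated 24 h at 37 °C with compounds in an 11-point 3-fold dilution series (top final 10 uM, DMSO ≤0.25%). Lysates were analysed by one-step RT-qPCR for canonical (CJ) and alternative-exon (AJ) junction isoforms, normalized to GAPDH, GUSB or PPIA.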
In general terms: Quantitative PCR measures a nucleic acid by following its amplification.

The subject of a further data set is HTT mRNA. As to the kind of experiment: Gene panel canonical junction qPCR assay, HTT CJ mRNA decrease. Type of data set: cell-based, human. As to conditions: Homo sapiens, canonical junction qPCR, read-out: HTT IC50 (decrease in CJ mRNA levels). Put shortly: (§1)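 A673 or K562 cells were treated with compound, and lysates underwent cDNA synthesis and qPCR with a CY5 5′-nuclease probe or primer spanning the canonical exon junction. ΔCt versus GAPDH, GUSB or PPIA was normalized to DMSO (2^(−ΔΔCt)), converted to percentage response and fitted four-parameter logistic for IC50.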

Data set [2] has as its system MYB mRNA. The data set is described as follows: Gene panel canonical junction qPCR assay, MYB CJ mRNA decrease. Type of data set: cell-based, human. The following applies: Homo sapiens, canonical junction qPCR, read-out: MYB IC50 (decrease in CJ mRNA levels). The method, boiled down: as §1
The subject of another data set is K562 cells. As to the kind of experiment: Cell Titer Glo 2.0 cell viability assay in K562 cells. As to conditions: 72 hours.

Where a name gives a salt, the structure may show the parent alone.

In the case of `Cc1cn2cc(NC(=O)c3ccc(N4CCN5CCC[C@H]5C4)c4ccnnc34)cc(F)c2n1` [Compound 154], the figures for the IC50 with MYB mRNA [1], with HTT mRNA and in the data set with MYB mRNA [2] were 100 to 1000 nM, 1000 to 10000 nM and 100 to 1000 nM, respectively. In addition, the AC50 in the data set with MYB mRNA [1] fell in the range of 100 to 1000 nM. Moreover, the Viability entry in the data set on K562 cells was “B (B represents 100-1000 nM)”.

For `Cc1cn2cc(NC(=O)c3ccc(N4C[C@H]5C[C@@H]4C5N(C)C)c4ccnnc34)cc(F)c2n1` (some centres unmarked) [Compound 155], the figures for the IC50 with MYB mRNA [1], in the data set with HTT mRNA and in the data set with MYB mRNA [2] were 1000 to 10000 nM, above 10000 nM and 1000 to 10000 nM, respectively. In the data set on MYB mRNA [1], the AC50 lay in the range of 1000 to 10000 nM. In addition, the Viability entry with K562 cells is “B (B represents 100-1000 nM)”.

On to `Cc1cc2c(N3CCNCC3)ccc(C(=O)Nc3cc(F)c4nc(C)cn4c3)c2nn1` [Compound 159], for which the half-maximal inhibitory concentration (IC50) in the data set with MYB mRNA [1] is below 100 nM; in the data set with HTT mRNA, 100 to 1000 nM; with MYB mRNA [2] it was below 100 nM. The same compound yielded a half-maximal activity concentration (AC50) in the data set on MYB mRNA [1] below 100 nM. In addition, the Viability result in the data set on K562 cells is listed as “A (A represents <100 nM)”.

As for `Cc1cn2cc(NC(=O)c3ccc(N4C[C@@H](C)N[C@@H](C)C4)c4ccnnc34)cc(F)c2n1` [Compound 161, 5-(3,5-dimethylpiperazin-1-yl)-N-{8-fluoro-2-methylimidazo[1,2-a]pyridin-6-yl}cinnoline-8-carboxamide 2,2,2-trifluoroacetate], the IC50 was below 100 nM with MYB mRNA [1], 1000 to 10000 nM in the data set on HTT mRNA and below 100 nM in the data set with MYB mRNA [2]. The same compound registered a half-maximal activity concentration (AC50) in the data set with MYB mRNA [1] below 100 nM. The Viability result in the data set on K562 cells is listed as “B (B represents 100-1000 nM)”.

With `Cc1ccc2c(N3CCNCC3)ccc(C(=O)Nc3cc(F)c4nc(C)cn4c3)c2n1` [Compound 162, N-{8-fluoro-2-methylimidazo[1,2-a]pyridin-6-yl}-2-methyl-5-(piperazin-1-yl)quinoline-8-carboxam-ide, trifluoroacetic acid], the IC50 in the data set on MYB mRNA [1] is below 100 nM; in the data set on HTT mRNA, 1000 to 10000 nM; in the data set with MYB mRNA [2], below 100 nM. In the data set with MYB mRNA [1], this compound yielded an AC50 below 100 nM. The Viability result with K562 cells is listed as “B (B represents 100-1000 nM)”.

Take `CC(=O)c1cc(NC(=O)c2ccc(N3CCNCC3)c3ccnnc23)cn2cc(C)nc12` [Compound 163, N-{8-acetyl-2-methylimidazo[1,2-a]pyridin-6-yl}-5-(piperazin-1-yl)cinnoline-8-carboxamide]: the IC50 with MYB mRNA [1] is 1000 to 10000 nM; in the data set with HTT mRNA it was above 10000 nM; in the data set with MYB mRNA [2], 1000 to 10000 nM. The compound also came in with an AC50 with MYB mRNA [1] of 1000 to 10000 nM. For the same compound, the Viability result in the data set on K562 cells is recorded as “C (C represents 1000-9999 nM)”.

`Cc1cn2cc(NC(=O)c3ccc(N4CCNCC4)c4ccnnc34)nc(C)c2n1` [Compound 164, N-{2,8-dimethylimidazo[1,2-a]pyrazin-6-yl}-5-(piperazin-1-yl)cinnoline-8-carboxamide 2,2,2-trifluoroacetate]: the IC50 with MYB mRNA [1] is 100 to 1000 nM; with HTT mRNA it was above 10000 nM; in the data set with MYB mRNA [2], 100 to 1000 nM. The same compound returned a concentration at half-maximal activity (AC50) in the data set on MYB mRNA [1] of 100 to 1000 nM. Further, the Viability entry in the data set on K562 cells is given as “B (B represents 100-1000 nM)”.

With `Cc1cn2cc(NC(=O)c3ccc(N4CCNCC4)c4cccnc34)cc(F)c2n1` [Compound 165, N-{8-fluoro-2-methylimidazo[1,2-a]pyridin-6-yl}-5-(piperazin-1-yl)quinoline-8-carboxamide], the IC50 with MYB mRNA [1] was below 100 nM; in the data set with HTT mRNA, 1000 to 10000 nM; with MYB mRNA [2] it was below 100 nM. Also, in the data set with MYB mRNA [1], the half-maximal activity concentration (AC50) was below 100 nM. For the same compound, the Viability entry in the data set on K562 cells is on record as “A (A represents <100 nM)”.

For the compound `Cc1cn2cc(NC(=O)c3ccc(N4CCNCC4)c4nnccc34)cc(F)c2n1` [Compound 166, N-(8-fluoro-2-methylimidazo[1,2-a]pyridin-6-yl)-8-(piperazin-1-yl)cinnoline-5-carboxamide 2,2,2-trifluoroacetate], the 50% inhibitory concentration (IC50) in the data set with MYB mRNA [1], in the data set with HTT mRNA and in the data set on MYB mRNA [2] was above 10000 nM each time. The AC50 in the data set on MYB mRNA [1] was above 10000 nM. The Viability result in the data set with K562 cells is on record as “D (D represents greater than 10 μM in K562 cells)”.

As to `Cc1cn2cc(NC(=O)c3ccc(N4CCNCC4)c4ccnnc34)cc(C#N)c2n1` [Compound 167, N-{8-cyano-2-methylimidazo[1,2-a]pyridin-6-yl}-5-(piperazin-1-yl)cinnoline-8-carboxamide trifluoroacetic acid salt], the concentration for half-maximal inhibition (IC50) in the data set on MYB mRNA [1] was in the range of 100 to 1000 nM; with HTT mRNA it was 1000 to 10000 nM; in the data set with MYB mRNA [2], 100 to 1000 nM. In the data set with MYB mRNA [1], this compound returned a concentration at half-maximal activity (AC50) of 100 to 1000 nM. Besides, the Viability entry in the data set with K562 cells is recorded as “B (B represents 100-1000 nM)”.

As to `CCc1cc(NC(=O)c2ccc(N3CCNCC3)c3ccnnc23)nn2cc(C)nc12` [Compound 168, N-{8-ethyl-2-methylimidazo[1,2-b]pyridazin-6-yl}-5-(piperazin-1-yl)cinnoline-8-carboxamide trifluoroacetic acid salt], the IC50 was 1000 to 10000 nM in the data set with MYB mRNA [1], above 10000 nM with HTT mRNA and 1000 to 10000 nM in the data set with MYB mRNA [2]. The same compound had an AC50 in the data set on MYB mRNA [1] of 1000 to 10000 nM. Also, the Viability result in the data set on K562 cells is recorded as “C (C represents 1000-9999 nM)”.

Take `COc1ccc2c(N3CCNCC3)ccc(C(=O)Nc3cc(F)c4nc(C)cn4c3)c2n1` [Compound 169, N-{8-fluoro-2-methylimidazo[1,2-a]pyridin-6-yl}-2-methoxy-5-(piperazin-1-yl)quinoline-8-carboxamide]: the results for the IC50 in the data set with MYB mRNA [1], in the data set on HTT mRNA and in the data set on MYB mRNA [2] were below 100 nM, 1000 to 10000 nM and below 100 nM, respectively. Also, the half-maximal activity concentration (AC50) in the data set with MYB mRNA [1] is below 100 nM. Besides, the Viability entry with K562 cells is recorded as “A (A represents <100 nM)”.

Take `Cc1cn2cc(NC(=O)c3ccc(N4C[C@@H](C)N[C@@H](C)C4)c4ccnnc34)nc(C)c2n1` [Compound 172, N-{2,8-dimethylimidazo[1,2-a]pyrazin-6-yl}-5-[(3R,5S)-3,5-dimethylpiperazin-1-yl]cinnoline-8-carboxamide]: the half-inhibitory concentration (IC50) in the data set on MYB mRNA [1] was 100 to 1000 nM; in the data set on HTT mRNA, above 10000 nM; with MYB mRNA [2], 100 to 1000 nM. In the data set on MYB mRNA [1], this compound yielded a half-maximal activity concentration (AC50) below 100 nM. For the same compound, in the data set on K562 cells, the Viability entry was “B (B represents 100-1000 nM)”.

In the case of `COCCOc1ccc2c(N3CCNCC3)ccc(C(=O)Nc3cc(F)c4nc(C)cn4c3)c2n1` [Compound 173, N-{8-fluoro-2-methylimidazo[1,2-a]pyridin-6-yl}-2-(2-methoxyethoxy)-5-(piperazin-1-yl)quinoline-8-carboxamide], the IC50 was below 100 nM in the data set on MYB mRNA [1], above 10000 nM in the data set on HTT mRNA and below 100 nM with MYB mRNA [2]. In the data set with MYB mRNA [1], this compound gave an AC50 below 100 nM. For the same compound, in the data set with K562 cells, the Viability entry is “B (B represents 100-1000 nM)”.

Turning to `COc1cc(NC(=O)c2ccc(N3CCNCC3)c3ccnnc23)cn2cc(C)nc12` [Compound 176, N-{8-methoxy-2-methylimidazo[1,2-a]pyridin-6-yl}-5-(piperazin-1-yl)cinnoline-8-carboxamide trifluoroacetate], the values for the IC50 with MYB mRNA [1], in the data set with HTT mRNA and in the data set on MYB mRNA [2] were 100 to 1000 nM, above 10000 nM and 100 to 1000 nM, respectively. This compound had an AC50 with MYB mRNA [1] of 100 to 1000 nM. Moreover, the Viability result with K562 cells is “B (B represents 100-1000 nM)”.

As for `Cc1cn2cc(NC(=O)c3ccc(N4CCNCC4)c4ccnnc34)[nH]c(=O)c2n1` [Compound 177, N-{2-methyl-8-oxo-7H-imidazo[1,2-a]pyrazin-6-yl}-5-(piperazin-1-yl)cinnoline-8-carboxamide trifluoroacetic acid salt], the IC50 with MYB mRNA [1], in the data set with HTT mRNA and in the data set on MYB mRNA [2] was 100 to 1000 nM throughout. This compound also showed an AC50 in the data set with MYB mRNA [1] of 100 to 1000 nM. The Viability result with K562 cells is recorded as “B (B represents 100-1000 nM)”.

The record behind these values is patent publication US20240409536A1, “COMPOUNDS AND METHODS FOR MODULATING SPLICING” (REMIX THERAPEUTICS INC., priority 2021, published 2024).
